Experimental data reported in patent US12521384B2, “Drug delivery composition using crosslinked hyaluronic acid and manufacturing method therefor” (JP cares, priority 2020, dated 2026).

Assays:
Sprague-Dawley rats = experiment: Mechanical allodynia degree (threshold), von Frey up-down method, after plantar incision; assay type: in vivo; details: Gb: Ro 0.75% 300 + SC 300 (ropivacaine 2.25 mg); for threshold value (g), group average: once near sciatic nerve
Protocol: Specific pathogen-free (SPF) Sprague-Dawley rats [Cr1:CD (Sprague Dawley)] (Producer: Orient Bio Inc. (322, Galmachi-ro, Jungwon-gu, Seongnam-si, Gyeonggi-do)) were prepared according to the following condition. • (1) Number of animals at acquisition: male 28 rats • (2) Age at acquisition: about 7-week-old • (3) Body weight range at acquisition: 199.29 to 222.35 g • (4) Age at start of administration: about 8-week-old • (5) Body weight range at start of administration: 265.63 to 294.00 g • (6) Number of animals used: 24 rats • (7) Group separation
After disinfecting the left plantar part of the prepared test animals under general anesthesia, the skin and fascia with a length of 1 cm were incised in the longitudinal direction starting from the part 0.5 cm away from the tip of the back of the foot. The sole muscle (plantar muscle) of the incised part was lifted with forceps to separate 1 cm in length. […] All Ga to Gd doses […] were equally administered near the nerve tissue, and the number of animals comprised in the experimental group were 6.
As a method for measuring the degree of mechanical allodynia after preparing the test groups, a white rat was placed in a wire mesh cage with a net eye size of 2×2 mm and acclimatized for 15 minutes or more, and then the continuous reaction was evaluated by an up-down method using 8 consecutive von Frey filaments (1, 2, 4, 6, 8, 15, 26, 60 g, Stoelting, USA) when the movement of the rat became quiet. […] It was progressed as the weak filament was stimulated when the positive reaction was shown by stimulating from the von Frey filament in the center, and the strong filament was stimulated when there was no positive reaction. By the above method, measurement was performed before, and at 1, 2, 4, 8, 24, 48, 72, 120, 168 hours after administration of the test substance. For interpretation of the result of the pain behavior test, the case in that avoidance reaction was shown or the foot was lifted up on the net while in contact with a plastic plate was determined as positive. Stimulation was given twice at an interval of 3-5 minutes, and using the positive threshold among them, a response change curve with time was obtained.
Pain threshold values were measured before and at 1, 2, 4, 8, 24, 48, 72, 120, 168 after administration of the test substance of each animal of the Ga to Gd group test groups, and the average of the threshold values of each test group was calculated. In Table 4 below, the threshold value (g) measured over time of drug administration was shown.

[1] = Drug release behavior of bupivacaine (dialysis bag in PBS, RP-HPLC); assay type: physicochemical; details: 8 hours; PBS 37° C., 100 rpm
Protocol: By mixing the crosslinked hyaluronic acid gels, JPD001, JPD004 and (mixture of JPD001 and JPD004 at a weight ratio of 1:1) comprising the crosslinked hyaluronic acid solid prepared in Example 1 at a content of 2% by weight, which are Samples 1-1, 1-4 and 1-5 of Example 1 of 6 g, respectively, and 0.75% by weight bupivacaine solution 3 g, a drug preparation was prepared. A preparation in which non-crosslinked hyaluronic acid having a molecular weight of 1,500 kDa (repeated unit molecular weight 401.3) 2% by weight and a preparation comprising only the bupivacaine drug were prepared, respectively, as a control group.
The prepared drug preparation was put in a dialysis bag (MWCO: 12 K-14 K Da), separately. Then, the dialysis bag was immersed into a tube with 15 ml phosphate buffer solution. The 50 mL conical tube in which the immersed dialysis bag was put was placed in a shaking tank maintained at 37° C. and shaken at 100 rpm horizontally. Then, at scheduled time intervals, a release medium (PBS) aliquot of 1.5 mL was collected and the entire release medium was replaced with new PBS to maintain a sink condition. Quantification of the released bupivacaine was determined by reverse-phase high-performance liquid chromatography (RP-HPLC) using a ZORBAX Eclipse XDB C18 column (4.6 mm×250 mm, 5 μm) and acetonitrile/pH 8.0 buffer (60:40, v/v) for 10 minutes or more.

| cumulative release amount of bupivacaine [1] | SMILES | time at which the pain was completely recovered (Sprague-Dawley rats) | threshold value (g), group average (Sprague-Dawley rats; 0 hr (before administration)) | threshold value (g), group average (Sprague-Dawley rats; 1 hr) | threshold value (g), group average (Sprague-Dawley rats; 2 hr) | threshold value (g), group average (Sprague-Dawley rats; 4 hr) | threshold value (g), group average (Sprague-Dawley rats; 8 hr) | threshold value (g), group average (Sprague-Dawley rats; 24 hr) | threshold value (g), group average (Sprague-Dawley rats; 48 hr) | threshold value (g), group average (Sprague-Dawley rats; 72 hr) | threshold value (g), group average (Sprague-Dawley rats; 120 hr) | threshold value (g), group average (Sprague-Dawley rats; 168 hr) |
| --- | --- | --- | --- | --- | --- | --- | --- | --- | --- | --- | --- | --- |
|  | CCCN1CCCC[C@H]1C(=O)Nc1c(C)cccc1C [Ropivacaine, ropivacaine] | 120 h | 60 g | 60 g | 60 g | 37.3 g | 31.7 g | 28.0 g | 17.5 g | 29.8 g | 60 g | 60 g |
| 99% | CCCCN1CCCCC1C(=O)Nc1c(C)cccc1C (stereo not drawn) [bupivacaine] |  |  |  |  |  |  |  |  |  |  |  |
